Measurements reported in patent publication US4650801A, “Anti-cancer compositions for delivering 5-fluorouracil” (Taiho Pharmaceutical Company, Ltd., priority 1978, dated 1987).

Tested on: sarcoma 180
Assay: Anti-cancer effect on subcutaneously transplanted sarcoma 180 in mice
Assay type: in vivo, mouse
Description: The anti-cancer compositions of this invention are tested in mice by the following methods to determine acute toxicity, anti-cancer effect and therapeutic index
Tissues of sarcoma 180, 2×10^6, are subcutaneously transplanted in the back of male mice of ICR strain (6 mice in each group). A 5-fluorouracil (a) and uracil derivative (b) in the proportions listed in Tables 1-16 are suspended in a 5% solution of gum arabic to prepare a suspension. Twenty-four hours after the transplantation and during the following seven consecutive days the suspension is orally given to the animal once every day. On the 10th day after the transplantation, the tumor is removed from the body and weighed to calculate the average weight (T) of the tumors in the group to which the composition has been given and the corresponding weight (C) in the control group to determine the ratio T/C.

## O=c1[nH]cc(F)c(=O)n1C1CCCO1 (stereo not shown) [Compound 6, 3-(2-Tetrahydrofuryl)-5-fluorouracil]
(b) = 1(2-Tetrahydrofuryl)uracil, (b)/(a) mol ratio 1
  ED50: 51 mg/kg
(b) = 1(2-Tetrahydrofuryl)uracil, (b)/(a) mol ratio 2
  ED50: 29 mg/kg
(b) = 1(2-Tetrahydrofuryl)uracil, (b)/(a) mol ratio 5
  ED50: 18 mg/kg
(b) = 1Acetyluracil, (b)/(a) mol ratio 1
  ED50: 32 mg/kg
(b) = 1Acetyluracil, (b)/(a) mol ratio 2
  ED50: 26 mg/kg
(b) = 1Acetyluracil, (b)/(a) mol ratio 5
  ED50: 16 mg/kg
(b) = 1Cyclohexylcarbamoyluracil, (b)/(a) mol ratio 0.5
  ED50: 55 mg/kg
(b) = 1Cyclohexylcarbamoyluracil, (b)/(a) mol ratio 2
  ED50: 46 mg/kg
(b) = 1Cyclohexylcarbamoyluracil, (b)/(a) mol ratio 5
  ED50: 33 mg/kg
(b) = 1n-Hexylcarbamoyluracil, (b)/(a) mol ratio 1
  ED50: 59 mg/kg
(b) = 1n-Hexylcarbamoyluracil, (b)/(a) mol ratio 2
  ED50: 41 mg/kg
(b) = 1n-Hexylcarbamoyluracil, (b)/(a) mol ratio 10
  ED50: 28 mg/kg
(b) = 2'-Deoxycytidine, (b)/(a) mol ratio 1
  ED50: 59 mg/kg
(b) = 2'-Deoxycytidine, (b)/(a) mol ratio 2
  ED50: 47 mg/kg
(b) = 2'-Deoxycytidine, (b)/(a) mol ratio 10
  ED50: 34 mg/kg
(b) = 2'-Deoxyuridine, (b)/(a) mol ratio 1
  ED50: 53 mg/kg
(b) = 2'-Deoxyuridine, (b)/(a) mol ratio 2
  ED50: 42 mg/kg
(b) = 2'-Deoxyuridine, (b)/(a) mol ratio 20
  ED50: 26 mg/kg
(b) = 3Benzoyluracil, (b)/(a) mol ratio 1
  ED50: 42 mg/kg
(b) = 3Benzoyluracil, (b)/(a) mol ratio 2
  ED50: 32 mg/kg
(b) = 3Benzoyluracil, (b)/(a) mol ratio 10
  ED50: 25 mg/kg
(b) = 5Bromo-2'-deoxyuridine, (b)/(a) mol ratio 0.5
  ED50: 49 mg/kg
(b) = 5Bromo-2'-deoxyuridine, (b)/(a) mol ratio 2
  ED50: 30 mg/kg
(b) = 5Bromo-2'-deoxyuridine, (b)/(a) mol ratio 10
  ED50: 22 mg/kg
(b) = 5Bromouracil, (b)/(a) mol ratio 0.5
  ED50: 39 mg/kg
(b) = 5Bromouracil, (b)/(a) mol ratio 2
  ED50: 26 mg/kg
(b) = 5Bromouracil, (b)/(a) mol ratio 10
  ED50: 21 mg/kg
(b) = 5Iodouracil, (b)/(a) mol ratio 1
  ED50: 26 mg/kg
(b) = 5Iodouracil, (b)/(a) mol ratio 2
  ED50: 17 mg/kg
(b) = 5Iodouracil, (b)/(a) mol ratio 5
  ED50: 11 mg/kg
(b) = Cytidine, (b)/(a) mol ratio 1
  ED50: 58 mg/kg
(b) = Cytidine, (b)/(a) mol ratio 2
  ED50: 39 mg/kg
(b) = Cytidine, (b)/(a) mol ratio 10
  ED50: 34 mg/kg
(b) = Cytosine, (b)/(a) mol ratio 1
  ED50: 56 mg/kg
(b) = Cytosine, (b)/(a) mol ratio 2
  ED50: 41 mg/kg
(b) = Cytosine, (b)/(a) mol ratio 10
  ED50: 24 mg/kg
(b) = Orotic acid, (b)/(a) mol ratio 1
  ED50: 69 mg/kg
(b) = Orotic acid, (b)/(a) mol ratio 2
  ED50: 61 mg/kg
(b) = Orotic acid, (b)/(a) mol ratio 20
  ED50: 46 mg/kg
(b) = Thymidine, (b)/(a) mol ratio 0.5
  ED50: 67 mg/kg
(b) = Thymidine, (b)/(a) mol ratio 2
  ED50: 63 mg/kg
(b) = Thymidine, (b)/(a) mol ratio 10
  ED50: 60 mg/kg
(b) = Thymine, (b)/(a) mol ratio 0.5
  ED50: 48 mg/kg
(b) = Thymine, (b)/(a) mol ratio 2
  ED50: 27 mg/kg
(b) = Thymine, (b)/(a) mol ratio 10
  ED50: 14 mg/kg
(b) = Uridine, (b)/(a) mol ratio 1
  ED50: 43 mg/kg
(b) = Uridine, (b)/(a) mol ratio 2
  ED50: 31 mg/kg
(b) = Uridine, (b)/(a) mol ratio 20
  ED50: 29 mg/kg
(b)/(a) mol ratio 0 (alone), oral, 50% cancer inhibition (T/C)
  ED50: 73 mg/kg
